The values that follow come from paper PMC4701221, “Novel Promising Estrogenic Receptor Modulators: Cytotoxic and Estrogenic Activity of Benzanilides and Dithiobenzanilides” (PLoS ONE, 2016).

Entries after “also recorded” stand apart in the source; their conditions may differ.

For series [1], the system named is MCF-7 cells. Nature of the series: MTT assay, MCF-7. Format: cell-based, human. The note with it: for Activity in MTT assay (in words), MCF-7: 72 h; for IC50: Homo sapiens, MCF7, 72 h, estrogen dependent breast adenocarcinoma, read-out: Cytotoxic activity IC50, MCF-7. The protocol: (§1) The cell lines used in the cytotoxicity study, besides MCF-12A, were purchased from European Collection of Cell Culture (ECACC, Salisbury, UK): HEK293 (human embryonic kidney, ATTC no. CRL-1573), A549 (Human lung carcinoma, ECACC no. 86012804), CCD39Lu (Human lung fibroblasts, ECACC no. 90110512), MCF-7 (Human breast adenocarcinoma, ECACC no. 86012803) and MDA-MB-231 (Human breast adenocarcinoma ECACC no. 92020424). Cell lines were cultured in DMEM medium without phenol red and supplemented with 10% (v/v) FBS, 1% penicillin-streptomycin and 1% L-glutamine. MCF-12A (ATTC no. […]) was purchased from American Type Culture Collection (ATCC Manassas, VA 20110 USA). MCF-12A cells were kept in 1:1 mixture of Dulbecco’s modified Eagle’s medium and Ham’s F12 medium, 20 ng/ml human epidermal growth factor, 100 ng/ml cholera toxin, 0.01 mg/ml bovine insulin, 500 ng/ml hydrocortisone and 5% horse serum. All cell lines were cultured at 37°C, in a humidified atmosphere containing 5% CO2.
(§2) Compounds were dissolved in DMSO to the final concentration of […]. A549, CCD39Lu, MCF-7, MDA-MB-231 and MCF-12A cells were seeded in 96 wells plates at density 2x10^4 cells/well and incubated overnight as described above. Subsequently, cells were treated with tested compounds at concentrations: 100 μM; 50 μM; 25μM; 12.5μM; 6 μM; 3 μM; 1.5 μM. […] Cells were incubated 72 h at 37°C in a humidified atmosphere containing 5% CO2 in the cell culture media appropriate for each cell line. Then, the medium was aspirated and 170 μl MTT solution (5mg/ml) was added to each well. Plates were incubated for 2 hours at 37°C, and then plates were centrifuged at 1200 rpm for 3 minutes. The formazan crystals were dissolved in 200 μl DMSO and plates were further agitated on a plate shaker at 300–500 rpm for 10 minutes. Absorbance at 570 nm (with reference wavelenght 650 nm) was measured using a plate reader (Biotek Instruments, Elx-800). Cell viability was calculated as a percentage relative to the control.
A general note: Formazan colour is commonly taken as a measure of viable cells.

The subject of series [2] is MDA-MB-231 cells. The experiment in a line: MTT assay, MDA-MB-231. The series is classed as cell-based, human. The note with it: Homo sapiens, MDA-MB-231, 72 h, estrogen independent breast adenocarcinoma, read-out: Cytotoxic activity IC50, MDA-MB-231. The protocol:
as §1, §2

The nature of series [3]: MTT assay, MCF-12A. Format: cell-based. The note with it: human, MCF-12A cells (non-tumorigenic breast epithelial), read-out: Cytotoxic activity IC50, MCF-12A. As for the experimental part: as §1, §2
For series [4], the system named is A549 cells. Nature of the series: MTT assay, A549. Format: cell-based. The note with it: Homo sapiens, 72 h, lung adenocarcinoma, read-out: Cytotoxic activity IC50, A549. The protocol:
as §1, §2

A short description of series [5]: MTT assay, CCD39Lu. The note with it: human, CCD39Lu cells (non-tumorigenic lung fibroblasts), read-out: Cytotoxic activity IC50, CCD39Lu. The series is classed as cell-based. As for the experimental part: as §1, §2
Series [6] concerns MCF-7 cells. Nature of the series: LDH release assay, MCF-7. Format: cell-based, human. To be noted: 72 h, Fig 2. As for the experimental part: Cytotoxicity was evaluated by measuring the cell membrane permeability, using a LDH assay kit purchased from Cayman Chemical (Ann Arbor USA). The LDH assay was performed for MCF-7 and MDA-MB-231 cells (seeded at 2×10^4 density). As a positive control cell permeabilization with 1%Triton X-100 was used. The assay was performed 72h after start the incubation. Briefly, the plates were centrifuged at 400 ×g for 5 minutes, and 100 μL of supernatant were transferred from each well to the new 96-well plate and analyzed according to the manufacturer’s protocol. 100 μL of reaction mixture, containing lactic acid, NAD^+, tetrazolium salt and diaphorase, was added to each well. Plates were incubated on an orbital shaker for 30 minutes at room temperature and the absorbance at 490 nm was measured with a plate reader (Biotek Instruments, Elx-800). Results were expressed as a percentage of the total value of the positive control.
(LDH leaks from cells whose membrane has failed.)

Series [7] deals with MCF-7 cells. Nature of the series: Sulphorodamine B assay, MCF-7. The series is classed as cell-based, human. To be noted: 72 h, Fig 2. As for the experimental part: In addition to the MTT assay, cell viability was measured by the Sulphorodamine B assay according to Vichai and Kirtikara. The MCF-7 and MDA-MB-23 cells were seeded and treated as for the MTT assay. After incubation the medium was removed and the cells were fixed with cold (4°C) trichloroacetic acid (final concentration 10%) for 1h. Than plates were washed 4 times with water and stained for 30 min, following by staining with sulforhodamine B (SRB) 0.4% in 1% acetic acid solution at room temperature for 20 min. After staining, the SRB solution was removed and the plates washed 5 times with 1% acetic acid dried. Bound SRB was solubilized with 200 μl 10 mM unbuffered Tris-base solution and plates were shaked for 10 min. The absorbance at 510 nm was measured using a plate reader (Biotek Instruments, Elx-800).

The target of series [8] is T1, human ERα receptor (Homo sapiens, UniProt P03372).
T1 construct: host or cells: HEK293
T1 sequence (P03372 1-595): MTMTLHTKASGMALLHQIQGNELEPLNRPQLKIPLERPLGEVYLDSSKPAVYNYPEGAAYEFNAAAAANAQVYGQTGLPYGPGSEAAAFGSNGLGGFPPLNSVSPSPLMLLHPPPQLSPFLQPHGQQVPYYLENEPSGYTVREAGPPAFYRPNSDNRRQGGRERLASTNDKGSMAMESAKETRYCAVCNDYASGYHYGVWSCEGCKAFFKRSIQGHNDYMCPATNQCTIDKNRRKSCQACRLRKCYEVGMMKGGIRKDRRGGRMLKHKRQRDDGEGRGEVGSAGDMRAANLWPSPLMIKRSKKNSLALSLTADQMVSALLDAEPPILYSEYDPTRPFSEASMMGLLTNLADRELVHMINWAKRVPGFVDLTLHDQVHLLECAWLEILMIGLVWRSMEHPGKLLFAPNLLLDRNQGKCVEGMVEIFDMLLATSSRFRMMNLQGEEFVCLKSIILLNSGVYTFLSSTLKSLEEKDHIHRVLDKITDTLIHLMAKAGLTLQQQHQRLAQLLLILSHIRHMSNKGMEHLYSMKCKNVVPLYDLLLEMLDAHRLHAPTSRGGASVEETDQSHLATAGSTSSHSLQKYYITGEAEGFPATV
Nature of the series: Estrogen Receptor luciferase assay in HEK293 cells transfected with ERα. The series is classed as cell-based. To be noted: HEK293 transfected with ERα and luciferase reporter, compared with estradiol, Fig 3A/3B. The text has this: (§3) To obtain a eukaryotic vector expressing only the ER-α nuclear receptor, a construct was designed by cloning a KpnI-BamHI fragment from plasmid pEGFP-C1-ERα containing the ERα coding sequence that includes a stop signal into the pEGFP-N3 plasmid (Clontech Laboratories, Palo Alto, CA) under the control of the CMV promoter. This construction was termed pEGFP-N-ERα, and although it encoded both human ERα receptor and GFP protein, only the former is expressed. For mock transfections, pEGFP-N3 plasmid was digested with BglII and NotI and religated after polishing DNA ends to remove GFP coding sequence. Plasmid sequence was confirmed by automatic sequencing. Prior to transfection, cells were seeded in 48 well plates at density of 1.5 x 10^4 cells/well and incubated for 24 h to reach a cell confluence of 80–90%. […] MCF-7 cells, which endogenously express ERα receptor, were transfected with p3xERRE/ERE-luciferase plus the pRLTK Renilla luciferase control plasmid (95:5). Firefly and Renilla luciferase activities were measured using the Dual Luciferase Assay System (Promega, Madison, WI, USA), following a standard protocol using a Sirius L luminometer (Berthold Technologies, Bad Wildbad, Germany). Data were expressed as relative changes in luciferase activity and normalized to 100%.

The target of series [9] is T2, estrogen receptor (Homo sapiens, UniProt P03372).
T2 construct: MCF-7 cells, which endogenously express ERα receptor; endogenous in cells; host or cells: MCF-7
T2 sequence (P03372 1-595): T1 sequence (P03372 1-595)
Nature of the series: Estrogen Receptor luciferase assay in MCF-7 cells (endogenous ER). The series is classed as cell-based. The note with it: MCF-7 transfected with p3xERRE/ERE-luciferase, Fig 3C.
Text: as §3

Turning to `COc1ccc(NC(=S)c2cccc(NC(=S)c3ccc(OC)cc3)c2)cc1` [Compound 15], the “Activity in MTT assay (in words), MCF-7” value in series [1] is “significant activity; also recorded: strong effect”. Further, the IC50 (commonly the concentration at which inhibition is half-maximal) in series [1] is 17.7 µM; in [2], more than 100 µM; in series [4], more than 100 µM. The IC50 at 72 h in [3] and in [5] was more than 100 µM throughout. Further, the “LDH release, MCF-7” value in series [6] is “relatively low increase”. Besides, the “Effect in SRB assay, MCF-7” value in series [7] was “strong effect”. In series [8], the “ER dependent transcriptional activity” value is “capable to mediate ER dependent transcriptional activity in a similar mode than estradiol”.
As for `COc1cc(NC(=O)c2cc(C)c(C)cc2[N+](=O)[O-])cc(OC)c1OC` [Compound 6], in [1], the “Activity in MTT assay (in words), MCF-7” value is reported as “significant activity”. Further, the figures for the IC50 in [1], in series [2] and in [4] were 24.7 µM, more than 100 µM and more than 100 µM, respectively. The IC50 at 72 h in [3] and in [5] was more than 100 µM throughout. Besides, the “ER dependent transcriptional activity” value in series [8] was “capable to mediate ER dependent transcriptional activity in a similar mode than estradiol”. For the same compound, the “Transcriptional (luciferase) activity in MCF-7” value in [9] is “much lower”.
